Each block holds one compound with its values, some of them ahead of it.
Columns and labels:
[1] = tested on: RARγ−/− F9 cells; test: Apoptosis of F9 cells (Hoechst 33258 staining, FACS); type: cell-based, murine; details: 6 d
Procedure: (§1) Apoptosis was analyzed by both Hoechst staining of nuclei and FACS® analysis, as previously described (Clifford, J., et al., EMBO J. 15:4142-4155 (1996)).

[2] = tested on: WT F9 cells; test: as above; type: cell-based, murine; details: 6 d
Procedure: as §1

[3] = tested on: RXRα−/− F9 cells; test: as above; type: cell-based, murine; details: 100 nM, 6 d
[4] = tested on: RARα−/− F9 cells; test: as above; type: cell-based, murine; set-up: key: (−): no visible effect; details: 6 d
Procedure: as §1

[5] = tested on: RXRα−/−/RARα−/− F9 cells; test: as above; type: cell-based, murine; details: 100 nM, 6 d
[6] = tested on: RARα−/− F9 cells; test: Morphological differentiation of F9 cell aggregates into visceral endoderm (VE)-like cells (morphology, RT-PCR of markers); type: cell-based, murine; set-up: key to proportion of outer layer of cells displaying VE morphology: +++: more than 80%; ++: 50-80%; +: 10-50%; ±: not more than 10%; (−): no visible effect; details: 1 μM, 10 d
From the text: (§2) Similarly, after 10 d of treatment, >80% of the outer layer of RARα^−/− and RXRα^−/−/RARα^−/− cell aggregates differentiated into VE-like cells, which were indistinguishable from those of WT and RXRα^−/− cells (FIG. 23A, compare f with panels b and d; and Table 9). […] To exclude the possibility that this very poor differentiation of the RXRα^−/−/RARγ^−/− cells could be due to some clonal variation, rather than the presence of the RXRα-null mutation in the RARγ-null background, we expressed the RXRα cDNA in RXRα^−/−/RARγ^−/− cells.
(§3) F9 cells were cultured and induced to differentiate into primitive, parietal and visceral endoderm-like cells as previously described (Boylan, J., et al., Proc. Natl. Acad. Sci. USA 90:9601-9605 (1993); Clifford, J., et al., EMBO J. 15:4142-4155 (1996)).
(§4) RNA preparation, RT-PCR, and Southern blotting were performed as previously described (Bouillet, P., et al., Dev. Biol. 170:420-433 (1995); Roy, B., et al., Mol. Cell. Biol. 15:6481-6487 (1995)). The PCR primers and end-labeled oligonucleotide probes for collagen IVα1, laminin B1, α-fetoprotein (AFP), and 36B4, were described previously (Clifford, J., et al ., EMBO J. 15:4142-4155 (1996)). Transcript levels were quantified using a BAS 2000 bioimaging analyzer (Fuji Ltd., Tokyo, Japan), and were normalized to the corresponding 36B4 signals.

[7] = tested on: WT F9 cells; test: as above; type: cell-based, murine; set-up: key to proportion of outer layer of cells displaying VE morphology: +++: more than 80%; ++: 50-80%; +: 10-50%; ±: not more than 10%; (−): no visible effect; details: WT; 1 μM; 10 d
From the text: as §2, §3, §4

[8] = tested on: RARγ−/− F9 cells; test: as above; type: cell-based, murine; set-up: key to proportion of outer layer of cells displaying VE morphology: +++: more than 80%; ++: 50-80%; +: 10-50%; ±: not more than 10%; (−): no visible effect; details: RARγ−/−; 1 μM; 10 d
Procedure: as §3, §4

[9] = tested on: RARα−/− F9 cells; test: Proliferation of F9 cells in monolayer culture (cell counting, [3H]thymidine incorporation, cell cycle FACS); type: cell-based, murine; details: 1 μM, 6 d
Procedure: (§5) Cells were plated in triplicate 3-cm culture wells (5×10^2 cells per well), and cell counting experiments were performed as previously described (Clifford, J., et al., EMBO J. 15:4142-4155 (1996)). [^3H]Thymidine incorporation assays were performed essentially as described (Clifford, J., et al., EMBO J. 15:4142-4155 (1996)), with the following modifications. […] The cell cycle profile of WT and mutant cells was determined as previously described (Clifford, J., et al. EMBO J. 15:4142-4155 (1996)).

[10] = tested on: RARγ−/− F9 cells; test: as above; type: cell-based, murine; details: 1 μM, 6 d
Procedure: as §5

[11] = tested on: WT F9 cells; test: as above; type: cell-based, murine; details: 1 μM, 6 d
Procedure: as §5

[12] = tested on: RXRα−/− F9 cells; test: as above; type: cell-based, murine; details: 1 μM, 6 d
[13] = tested on: RXRα−/−/RARα−/− F9 cells; test: as above; type: cell-based, murine; details: 1 μM, 6 d
[14] = tested on: RXRα−/−/RARγ−/− F9 cells; test: as above; type: cell-based, murine; details: 1 μM, 6 d
[15] = biological target: mouse RXRγ (mouse) (UniProt P28705); test: cell-based or functional assay
mouse RXRγ (mouse), sequence (P28705 whole entry): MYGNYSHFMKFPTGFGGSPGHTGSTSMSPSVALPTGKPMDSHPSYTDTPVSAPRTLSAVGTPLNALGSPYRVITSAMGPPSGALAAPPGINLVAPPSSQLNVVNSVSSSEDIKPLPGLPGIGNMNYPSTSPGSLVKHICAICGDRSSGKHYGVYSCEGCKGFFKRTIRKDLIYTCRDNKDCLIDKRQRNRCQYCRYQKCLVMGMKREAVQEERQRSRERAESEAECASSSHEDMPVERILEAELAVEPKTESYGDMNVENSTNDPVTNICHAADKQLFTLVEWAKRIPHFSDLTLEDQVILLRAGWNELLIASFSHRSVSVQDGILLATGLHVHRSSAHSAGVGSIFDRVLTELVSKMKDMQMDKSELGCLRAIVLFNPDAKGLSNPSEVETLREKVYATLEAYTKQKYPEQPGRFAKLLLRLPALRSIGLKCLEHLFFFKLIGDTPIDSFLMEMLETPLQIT

Compound: CC1(C)CCC(C)(C)c2cc(NC(=O)c3ccc(C(=O)O)cc3)ccc21 [panRAR agonist]
proportion of apoptotic nuclei and subcellular fragments (Hoechst 33258) ([1]; 100 nM): ± (<1%) | proportion of apoptotic nuclei and subcellular fragments (Hoechst 33258) ([2]; 100 nM): + (>1-10%) | proportion of apoptotic nuclei and subcellular fragments (Hoechst 33258) [3]: ±* (asterisks less than that in combination with 1 μM panRXR agonist) | proportion of apoptotic nuclei and subcellular fragments (Hoechst 33258) ([4]; 100 nM): + (>1-10%) | proportion of apoptotic nuclei and subcellular fragments (Hoechst 33258) [5]: ±* (asterisks less than that in combination with 1 μM panRXR agonist)

Compound: CC1(C)CCC(C)(C)c2cc(C3(c4ccc(C(=O)O)cc4)OCCO3)ccc21 [panRXR agonist]
proportion of outer layer of cells displaying VE morphology [6]: (−) | proportion of outer layer of cells displaying VE morphology [7]: (−) | proportion of outer layer of cells displaying VE morphology [8]: (−) | number of cells in percent relative to cells grown in 0.1% ethanol [9]: 100% | number of cells in percent relative to cells grown in 0.1% ethanol [10]: 100% | number of cells in percent relative to cells grown in 0.1% ethanol [11]: 100% | number of cells in percent relative to cells grown in 0.1% ethanol [12]: 100% | number of cells in percent relative to cells grown in 0.1% ethanol [13]: 100% | number of cells in percent relative to cells grown in 0.1% ethanol [14]: 100% | proportion of apoptotic nuclei and subcellular fragments (Hoechst 33258) ([1]; 1 μM): (−) | proportion of apoptotic nuclei and subcellular fragments (Hoechst 33258) ([2]; 1 μM): (−) | proportion of apoptotic nuclei and subcellular fragments (Hoechst 33258) ([4]; 1 μM): (−)

CAT activity of the C1 reporter (D2R promoter) in COS-1 cells cotransfected with RARα and RXRγ, in the presence of t-RA and 9-cis-RA [15]: 45 fold | CAT activity of the C2 reporter in COS-1 cells coexpressing RARα/RXRγ, in the presence of t-RA and 9-cis-RA [15]: 66 fold | CAT activity of the C3 reporter (D2R RARE upstream of the TK promoter) in COS-1 cells cotransfected with RARα/RXRγ, in the presence of t-RA and 9-cis-RA [15]: 11 fold
Compound: mouse RARα (from UniProt P11416 1-462) (receptor)

Reference: patent US6521814B1, “Use of ligands for treatment of diseases responsive to retinoids” (Institut National de la Santa et de la Recherche Medicale, priority 1997, dated 2003)
